Like-named read-outs stand apart in the source and are kept apart here.
Target: T1, System xc− (Sxc−, glutamate/cystine antiporter) (Homo sapiens, UniProt Q9UPY5)
T1 construct: A number of glioma cell lines, including SNB-19, express markedly higher levels of Sxc^−; host or cells: SNB-19 human glioma cells
T1 sequence (Q9UPY5 1-501): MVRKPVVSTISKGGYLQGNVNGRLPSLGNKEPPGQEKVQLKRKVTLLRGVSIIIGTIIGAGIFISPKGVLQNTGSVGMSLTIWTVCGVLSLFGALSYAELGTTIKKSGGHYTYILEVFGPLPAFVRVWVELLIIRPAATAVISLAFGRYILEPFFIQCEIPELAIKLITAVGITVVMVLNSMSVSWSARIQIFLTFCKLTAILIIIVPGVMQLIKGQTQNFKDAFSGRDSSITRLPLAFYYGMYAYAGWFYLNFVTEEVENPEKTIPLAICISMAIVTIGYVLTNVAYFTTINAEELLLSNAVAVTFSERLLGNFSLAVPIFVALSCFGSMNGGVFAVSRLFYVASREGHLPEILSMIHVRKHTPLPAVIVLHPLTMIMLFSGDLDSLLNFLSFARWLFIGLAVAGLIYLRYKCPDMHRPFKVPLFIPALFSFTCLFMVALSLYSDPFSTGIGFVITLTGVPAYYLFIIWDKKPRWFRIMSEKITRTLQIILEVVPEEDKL
T1 sequence (P08195 1-529 partner): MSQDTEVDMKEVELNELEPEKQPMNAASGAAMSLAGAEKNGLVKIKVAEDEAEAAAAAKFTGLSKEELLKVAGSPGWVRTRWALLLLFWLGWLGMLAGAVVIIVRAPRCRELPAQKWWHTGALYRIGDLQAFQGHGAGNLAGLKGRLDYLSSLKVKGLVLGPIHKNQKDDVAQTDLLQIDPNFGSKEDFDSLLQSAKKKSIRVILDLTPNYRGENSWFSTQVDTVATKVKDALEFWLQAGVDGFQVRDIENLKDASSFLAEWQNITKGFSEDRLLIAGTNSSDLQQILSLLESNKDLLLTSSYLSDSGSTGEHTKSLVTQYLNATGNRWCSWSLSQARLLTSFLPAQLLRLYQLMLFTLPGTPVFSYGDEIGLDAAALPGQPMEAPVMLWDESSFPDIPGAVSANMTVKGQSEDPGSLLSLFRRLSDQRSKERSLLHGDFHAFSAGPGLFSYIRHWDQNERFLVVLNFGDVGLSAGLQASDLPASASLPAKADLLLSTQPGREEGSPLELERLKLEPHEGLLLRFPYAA
Assay: Inhibition of 3H-L-Glu uptake into SNB-19 glioma cells under Cl-dependent (Na-free) conditions
Type: cell-based
Conditions: for 3H-L-Glu Uptake (% control): 100 μM 3H-L-Glu, smaller number = greater inhibition; for inhibitory activity, ranking among compounds of Table 1: comment on Table 1
Experimental: SNB-19 glioma cells, purchased from American Type Culture Collection (Manassas, Va.), were grown in DMEM/F-12 medium (pH 7.4) containing 1 mM pyruvate and 16 mM NaHCO3 and supplemented with 10% fetal calf serum. The cells were cultured in 150 cm^2 flasks (Corning) and maintained at 37° C. in a humidified atmosphere of 5% CO2. In the ^3H-L-Glu uptake experiments, cells were seeded in 12 well culture plates (Costar) at a density of 5×10^4 cells/well and maintained for 3 days until 80-90% confluent. Protein concentrations were determined by the bicinchoninic acid (BCA) method (Pierce).
Uptake of ^3H-L-Glu into cultured cells was quantified using a modification of the procedure of Martin and Shane as previously described by Patel et al. (supra). Briefly, after removal of culture media, wells were rinsed three times and pre-incubated in 1 ml Na^+-free HEPES buffered (pH 7.4) Hank's balanced salt solution (HBHS) at 30° C. for 5 min. The Nat free buffer contained: 137.5 mM choline Cl, 5.36 mM KCl, 0.77 mM KH2PO4, 0.71 mM MgSO^4.7H2O, 1.1 mM CaCl2, 10 mM D-glucose, and 10 mM HEPES. Uptake was initiated by aspiration of the pre-incubation buffer and the addition of a 500 gl aliquot of Na^+-free transport buffer containing ^3H-L-Glu (4-16 mCi/m1) mixed with L-Glu (10-500 μM, final concentration). In those assays that evaluated inhibitor activity, the 500 gl aliquot of transport buffer contained both the ^3H-L-Glu and potential inhibitors to ensure simultaneous addition. Following a 5 min incubation at 30° C., the assays were terminated by three sequential 1 ml washes with ice cold buffer after which the cells were dissolved in 1 ml of 0.4 M NaOH for 24 h. An aliquot (200 μl) was then transferred into a 5 ml glass scintillation vial and neutralized with the addition of 5 gl glacial acetic acid followed by 3.5 ml Liquiscint© scintillation fluid (National Diagnostics) to each sample. Incorporation of radioactivity was quantified by liquid scintillation counting (LSC, Beckman LS 6500). Values are reported as mean±S.E.M. and are corrected for non-specific uptake (e.g., leakage and binding) by subtracting the amount of ^3H-L-Glu accumulation at 4° C.
The inhibitory activity of the compounds was determined by quantifying the ability of the analogues to reduce the accumulation of ^3H-L-Glu into human SNB-19 glioblastoma cells under Cl-dependent (Na-free) conditions. A number of glioma cell lines, including SNB-19, express markedly higher levels of Sxc^− and reduced levels of the sodium-dependent excitatory amino acid transporters (“EAATs”) than do primary astrocytes, making them well suited for pharmacological assays (Ye et al., Compromised glutamate transport in human glioma cells: reduction-mislocalization of sodium-dependent glutamate transporters and enhanced activity of cystine-glutamate exchange, J Neurosci, 1999 Dec. 15, 19(24), 10767-77). The compounds of the invention were initially screened at a single concentration of substrate (100 μM ^3H-L-Glu) and isoxazole (500 μM) to confirm inhibitory activity. […] (The data are reported as % of control uptake, thus the smaller the number the greater the level of inhibition.)
A slope replot for 5-4-TFM-Benzyl-4-bis-TFM-HMICA is included in FIG. 3, (average Ki=3±1 μM, n=5). […] In the instance of 5-4-TFM-Benzyl-4-bis-TFM-HMICA the replot of I/Vmax,apparent vs. [I] was indeed linear and yielded a Ki of about 8 μM (plots not shown). […] As the identification of the di-substituted isoxazoles as noncompetitive inhibitors was unexpected, the kinetic data was also analyzed using the Eadie-Hofstee method as a second graphical approach.

[1] = SNB-19 cells, 3H-L-Glu uptake, read-out: KI 3H-L-Glu Uptake

Row | Ki [1] | 3H-L-Glu Uptake (% control) (compound 100 μM, SNB-19 cells) | 3H-L-Glu Uptake (% control) (compound 500 μM, SNB-19 cells) | inhibition of the System Xc- antiporter, in words (statement in the crystal structure description) | inhibitory activity, ranking among compounds of Table 1 | pattern (mechanism) of inhibition (Michaelis-Menten, LWB and Eadie-Hofstee analyses, FIGS. 1-4) | Ki (replot of LWB graphs, plots not shown, read-out: Ki from 1/Vmax,apparent vs. [I] replot) | Ki (slope replot (FIG. 3), n=5, read-out: average Ki from LWB slope vs. [I] replot) | Compound
1 | 25 µM | 52 % control |  |  |  |  |  |  | CN(C)c1cccc2c(S(=O)(=O)NC(Cc3cc(Br)c(O)c(Br)c3)C(=O)O)cccc12 (centres unmarked) [Danzyl-DBT, 3-(3,5-dibromo-4-hydroxyphenyl)-2-(5-(dimethylamino)naphthalene-1-sulfonamido)propanoic acid]
2 |  | 32 % control | 8 % control | potent inhibitor |  |  |  |  | COc1ccc2ccccc2c1-c1noc(C)c1C(=O)NC(Cc1cc(Br)c(O)c(Br)c1)C(=O)O (centres unmarked) [MOI-16, 3-(3,5-dibromo-4-hydroxyphenyl)-2-(5-methyl-3-(2-methoxynaphthalen-1-yl)isoxazole-4-carboxamido)propanoic acid]
3 | 15 µM | 8 % control |  |  | greatest inhibitory activity |  |  |  | Cc1onc(-c2c3ccccc3c(Cl)c3ccccc23)c1C(=O)NC(Cc1cc(Br)c(O)c(Br)c1)C(=O)O (centres unmarked) [AIM-DBT, 2-(3-(10-chloroanthracen-9-yl)-5-methylisoxazole-4-carboxamido)-3-(3,5-dibromo-4-hydroxyphenyl)propanoic acid]
4 |  | 14 % control |  |  |  | noncompetitive inhibition | ~8 µM | 3 ± 1 µM | C/C(=N\Nc1cc(C(F)(F)F)cc(C(F)(F)F)c1)c1c(C(=O)O)noc1Cc1ccc(C(F)(F)F)cc1 [5-4-TFM-Benzyl-4-bis-TFM-HMICA]
5 |  | 23 % control | 6 % control |  |  |  |  |  | Cc1onc(-c2cccc3ccccc23)c1C(=O)NC(Cc1cc(Br)c(O)c(Br)c1)C(=O)O (centres unmarked) [LC-19, 3-(3,5-dibromo-4-hydroxyphenyl)-2-(5-methyl-3-(naphthalen-1-yl)isoxazole-4-carboxamido)propanoic acid]
6 |  | 8 % control | 1 % control |  | greatest inhibitory activity |  |  |  | Cc1onc(-c2c(OCc3ccccc3)ccc3ccccc23)c1C(=O)N[C@@H](Cc1cc(Br)c(O)c(Br)c1)C(=O)O [Compound 3ND-101, (2S)-2-(3-(2-(benzyloxy)naphthalen-1-yl)-5-methylisoxazole-4-carboxamido)-3-(3,5-dibromo-4-hydroxyphenyl)propanoic acid]
